The values that follow come from US20040247639A1, “Novel methods and compositions for the treatment or prevention of dysmenorrhoea and menstrual side effects: the use of phospholipase inhibitors” (priority 2000, published 2004).

Read-outs that look alike come from different tables or passages of the source.

The subject of data set [1] is rat uterus. The experiment in a line: Spontaneous uterine work in uteri of ovarectomised, sex hormone-treated rats. As to conditions: for spontaneous uterine work: uteri removed 4 days after hormone treatment of ovarectomised rats, n=4-5. An excerpt:
(§1) To examine the potential benefit of PLA2 inhibitors in treating dysmenorrhoea in women, an in vitro model was developed which measured the force and frequency of contractions in a rat uterus. When removed from the rat and placed in an organ bath, the uterus contracts rhythmically. The force of contraction varies with the profile of sex hormones produced by the animal at the different stages of the sexual (oestrus) cycle. Levels of oestrogen and progesterone fluctuate throughout the sexual cycle. To ensure a reproducible model, rats were ovarectomised and oestrogen, progesterone, a combination of oestrogen and progesterone and an inert control substance were given to mimic different stages of the sexual cycle.
(§2) In a separate series of experiments, rats were ovarectomised then treated with sex hormones to ensure animals are at the same stage of the oestrus cycle. Uteri were removed from the rats 4 days after hormone treatment, allowed to equilibrate in the organ baths for 30 minutes, then the intensity of uterine contractions and frequency of the spontaneous contractions was measured. In the oestrogen-primed uteri, spontaneous uterine work was […], in progesterone-primed rats, 10±0.9 mNs^−1, in oestrogen plus progesterone-primed uteri, 9±1.5 mNs^−1 and in control uteri 7.9±0.6 mNs^−1.
(§3) sPLA2 inhibitor 5 and ketoprofen were tested in the model to determine their ability to moderate both spontaneous contractions and contractile activity stimulated by oxytocin.

The test system of data set [2] is rat uterus. The experiment in a line: Oxytocin-challenged uterine work in uteri of ovarectomised, sex hormone-treated rats. Set-up: maximum decrease in the intensity of the oxytocin response: dose or concentration left out as unconfirmed. Particulars: for maximum uterine work with oxytocin: hormone-treated group challenged with 100 mU oxytocin; for inhibition at 0.1 µM: 100 nM; for change of oxytocin EC50 values: 1 nM-1 μM.
Text: as §1, §2
Challenging with oxytocin caused an increase in uterine work over baseline spontaneous activity.
as §3

The test system of data set [3] is rat uterus. The experiment in a line: Spontaneous contractions of rat uterus in organ bath (naturally-cycling rats). The source says:
(§4) To examine the potential benefit of PLA2 inhibitors in treating dysmenorrhoea in women, an in vitro model was developed which measured the force and frequency of contractions in a rat uterus. When removed from the rat and placed in an organ bath, the uterus contracts rhythmically. The force of contraction varies with the profile of sex hormones produced by the animal at the different stages of the sexual (oestrus) cycle. Levels of oestrogen and progesterone fluctuate throughout the sexual cycle. […]
(§5) In this model the uterine contractions are stimulated by the synthesis and release of eicosanoids and other contractile mediators by cells in the uterus, which then act on the muscle cells in the uterine wall to cause contraction. Compounds 5 and 9 were tested for their ability to inhibit spontaneous and oxytocin-induced contractions of a female rat uterus (described ahead). Addition of oxytocin, a hormone synthesised in the pituitary gland, gives uterine contractions of greater force and frequency by increasing the release of eicosanoids (Wassdal, I et al, 1998, Acta Physiol Scand, 164: 47-52, Burns, P D et al, 1998, Domest Anim Endocrinol, 15: 477-487, Asselin, E et al, 1997, Endocrinology, 138: 4798-4805). There is a relationship between the stage of the sexual cycle and the sensitivity of the uterus to oxytocin (Engstrom, T et al., 1999, J. Endocrinol., 161: 403-411). It has been shown that the contractions can be reduced if the synthesis of the mediators is blocked.
(§6) Uteri were removed from rats, divided into 4 segments and placed in organ baths to measure force and frequency of contraction. Spontaneous contractions were measured, then each segment of uterus was challenged with oxytocin (1 μI.U. to 100 mI.U.). The force and frequency of contraction was measured after oxytocin addition and a concentration response curve generated. The drugs—either an sPLA2 inhibitor or a NSAID—was then added to the bath and allowed to equilibrate for 30 minutes. The drugs were tested at concentrations ranging from 1 nM to 10 μM with one piece of tissue per concentration. The tissue was then challenged with increasing concentrations of oxytocin to generate a second concentration-response curve. The EC50 concentrations in control and drug-treated tissue were determined from the curves and compared.

The subject of data set [4] is rat uterus. The experiment in a line: Oxytocin-induced contractions of rat uterus in organ bath (naturally-cycling rats).
Text: as §4, §5, §6

In data set [5] the test system is rat uterus. The experiment in a line: Rat uterine contractions, spontaneous and oxytocin-induced together. As to conditions: for EC50: Rattus norvegicus; for drug concentrations suppressing spontaneous and oxytocin-induced uterine contractions: rat uterine model.
Text: as §1
as §5, with “Compounds 5 and 9 were tested for their ability to inhibit spontaneous and oxytocin-induced contractions of a female rat uterus (described ahead).” left out
as §6

Data set [6] addresses T1, type V human non-pancreatic sPLA2 (Homo sapiens, UniProt P39877).
T1 sequence (P39877 21-138): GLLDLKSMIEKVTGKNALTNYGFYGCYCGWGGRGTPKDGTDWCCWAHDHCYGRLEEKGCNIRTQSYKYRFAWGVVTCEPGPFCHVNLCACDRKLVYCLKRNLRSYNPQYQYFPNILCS
As to conditions: Chen, Y. et al, 1998; cited from earlier work.

Data set [7] addresses T2, human non-pancreatic secretory PLA2 (type IIa) (Homo sapiens, UniProt P14555).
T2 sequence (P14555 21-144): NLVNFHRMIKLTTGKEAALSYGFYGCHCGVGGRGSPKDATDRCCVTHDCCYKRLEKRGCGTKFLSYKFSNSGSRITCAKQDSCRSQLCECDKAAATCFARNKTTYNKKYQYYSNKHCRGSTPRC
The experiment in a line: Mixed micelle colorimetric assay for inhibition of human non-pancreatic sPLA2 (type IIa). Format: biochemical. As to conditions: thio-PC/Triton X-100 mixed micelles, 37° C., Dixon plot (FIG. 3); read-out: IC50 against human non-pancreatic sPLA2 (type IIa). As to the method: Reagents were obtained commercially in the sPhospholipase A2 Assay Kit, Cayman Chemical Company MI USA. Buffer (25 mM Tris HCl at pH 7.5, 1 mg/mL BSA, 0.3 mM Triton X-100, 100 mM KCl, 10 mM CaCl2), substrate (diheptanoyl thio-phosphatidyl choline), DTNB (5,5′-dithiobis(2-nitrobenzoic acid)) and a 96 well plate were all provided. Recombinant hIIa-PLA2 was provided by the Garvan Institute for Medical Research. […] Standard inhibitor solutions were prepared from anhydrous DMSO. All samples were run in triplicate including the blank and control samples.
[…] Thio-PC is processed by s-PLA2 and the free thiol produced is detected with DTNB (Ellman's Reagent). 5-Thio-2-nitrobenzoic acid is detected spectrophotometrically at […]. IC50's were determined by assaying inhibitors at a range of concentrations.

Data set [8] deals with monocyte leukotriene release. As to conditions: Cha, 1996; cited from earlier work.
Where [9] appears, read: Table 1, rat uterus model, read-out: ED50 Spontaneous contractions.
[10] abbreviates: Table 1, rat uterus model, read-out: ED50 Oxytocin-induced contractions.
The mark [11] stands for this setting: range over spontaneous and oxytocin-induced contractions, read-out: EC50, inhibition of uterine contractions.
Setting [12] is: Rattus norvegicus, Oestrogen (O) group, mean ± SEM, read-out: maximum inhibition of uterine work, oxytocin challenge.
Where [13] appears, read: Rattus norvegicus, Vehicle group, mean ± SEM, read-out: maximum inhibition of uterine work, oxytocin challenge.
Setting [14] is: Table 1, rat uterus model, NSAIDs.

In the case of oestrogen, the spontaneous uterine work in the data set with rat uterus [1] is reported as 7.2±1.4 mNs^−1. The “maximum uterine work with oxytocin” value in the data set with rat uterus [2] is on record as 15.7 mNs^−1.
For `Cc1c(CC(N)=O)c2cc(OCCCP(=O)(O)O)ccc2n1Cc1ccccc1` [Compound 9, [3-(1-Benzyl-3-carbamoylmethyl-2-methyl-1H-indol-5-yloxy)-propyl]-phosphonic acid], the EC50 was 80 nM in the data set on rat uterus [3] (setting [9]); 200 nM in the data set on rat uterus [4] (setting [10]); approximately 100 nM in the data set on rat uterus [5] (FIG. 6, n=2, read-out: EC50, spontaneous contraction and oxytocin induced contractions in rat uterus); 80 to 200 nM in the data set with rat uterus [5] (setting [11]). In addition, the IC50 (commonly the concentration that inhibits the measured activity by half) in data set [6] was 36 nM.
Take `COc1ccc2cc([C@H](C)C(=O)O)ccc2c1` [naproxen, reference compound]: the “drug concentrations suppressing spontaneous and oxytocin-induced uterine contractions” value in the data set on rat uterus [5] is recorded as “micromolar to millimolar”.
Regarding `CC(C(=O)O)c1cccc(C(=O)c2ccccc2)c1` (stereo not drawn) [Ketoprofen, ketoprofen, reference compound], the “maximum inhibition of uterine work, oxytocin challenge” value in the data set with rat uterus [2] (O + P group, up to 10 μM) is given as “no inhibitory effect”. In addition, the inhibition (in general, the drop in the measured response relative to a control, in per cent) at 0.1 µM with rat uterus [2] (setting [12]) turned out to be 29%; with rat uterus [2] (Rattus norvegicus, Progesterone (P) group, mean ± SEM, read-out: maximum inhibition of uterine work, oxytocin challenge) it was 84%; in the data set on rat uterus [2] (setting [13]) it was 79%.
As to `CN1C(C(=O)Nc2ccccn2)=C(O)c2ccccc2S1(=O)=O` [Piroxicam, piroxicam, reference compound], the “ED50 Spontaneous contractions” value in the data set on rat uterus [3] (setting [14]) is recorded as “No effect”. The “ED50 Oxytocin-induced contractions” value in the data set with rat uterus [4] (setting [14]) was “No Effect”. Moreover, in the data set with rat uterus [5], the “drug concentrations suppressing spontaneous and oxytocin-induced uterine contractions” value is “micromolar to millimolar”.
Regarding `O=C(O)CC[C@@H](CSc1ccc(Cc2ccccc2)cc1)NC(=O)CCCCCCc1ccccc1` [Compound 5, (S)-5-(4-Benzyl-phenylsulfanyl)-4-(7-phenyl-heptanoylamino)-pentanoic acid], the melting point (in general, the temperature of the solid-liquid transition) was in the range of 89 to 91.5 °C. Besides, the IC50 in data set [7] amounted to 42 nM. Moreover, in the data set with rat uterus [3] (Rattus norvegicus, FIG. 4, n=3, read-out: EC50, spontaneous activity of rat uteri in the organ bath), the EC50 is 30 nM. The EC50 in the data set on rat uterus [3] (setting [9]) was determined as 30 nM. For the same compound, the EC50 in the data set with rat uterus [4] (Rattus norvegicus, FIG. 5, n=3, read-out: ED50, uterine contractions induced by oxytocin) amounted to 20 nM. In the data set on rat uterus [4] (setting [10]), the EC50 is 20 nM. In the data set on rat uterus [1] (oestrogen and progesterone treated uteri, 1 nM-1 μM, n=5), the “effect on spontaneous activity” value is given as “did not inhibit”. The “effect on spontaneous activity” value with rat uterus [1] (oestrogen treated uteri, 10 nM, n=4, P<0.05) is “inhibited”. Moreover, the “effect on spontaneous activity” value in the data set with rat uterus [1] (oil vehicle (control) rats, 1 nM, n=4, P<0.05) was “inhibited spontaneous activity”. The “effect on spontaneous activity” value in the data set with rat uterus [1] (progesterone treated uteri, 1 nM-1 μM, n=5) was “did not significantly inhibit”. For the same compound, in the data set with rat uterus [2] (Rattus norvegicus, O + P group, 1 nM, mean ± SEM, read-out: maximum inhibition of uterine work, oxytocin challenge), the inhibition at 0.001 µM is 62%. For the same compound, the inhibition at 0.1 µM with rat uterus [2] (setting [12]) was 34%. For the same compound, the inhibition at 0.01 µM in the data set on rat uterus [2] (Rattus norvegicus, Progesterone (P) group, 10 nM, mean ± SEM, read-out: maximum inhibition of uterine work, oxytocin challenge) is 65%. In addition, in the data set on rat uterus [2] (setting [13]), the inhibition at 0.1 µM is 40%. For the same compound, in the data set with rat uterus [2] (oestrogen and progesterone treated uteri, n=5), the “change of oxytocin EC50 values” is on record as “did not inhibit”. The “maximum decrease in the intensity of the oxytocin response” value with rat uterus [2] (oestrogen treated uteri) is on record as 34%±5%. In the data set on rat uterus [2] (oestrogen treated uteri, n=4), the “change of oxytocin EC50 values” is reported as “did not alter”. The “potency in inhibiting uterine contractions compared to NSAIDs” value in the data set with rat uterus [5] was 1,000 fold. Moreover, in the data set on rat uterus [5] (setting [11]), the EC50 is 1 to 20 nM. Also, the IC50 in data set [8] is 350 nM.
In the case of `Cc1c(Nc2ncccc2C(=O)O)cccc1C(F)(F)F` [Flunixin, flunixin meglumine, reference compound], the “effect on spontaneous rat uterine contractions” value in the data set on rat uterus [3] (FIG. 7, 1 μM and 5 μM, n=3) was “reduced spontaneous contractions”. The EC50 in the data set with rat uterus [3] (Table 1, rat uterus model, NSAIDs, read-out: ED50 Spontaneous contractions) is 1000 nM; in the data set with rat uterus [4] (Table 1, rat uterus model, NSAIDs, read-out: ED50 Oxytocin-induced contractions), 1000 nM. In the data set with rat uterus [4] (FIG. 7, n=3), the “effect on oxytocin-induced contractions” value was “no effect”. The “drug concentrations suppressing spontaneous and oxytocin-induced uterine contractions” value with rat uterus [5] is listed as “micromolar to millimolar”.
For the compound `CC(=O)[C@H]1CC[C@H]2[C@@H]3CCC4=CC(=O)CC[C@]4(C)[C@H]3CC[C@]12C` [progesterone], the spontaneous uterine work in the data set with rat uterus [1] came out at 10±0.9 mNs^−1. In addition, the “maximum uterine work with oxytocin” value in the data set with rat uterus [2] is reported as 0.9 mNs^−1.
